Structures are written as SMILES.

IC50 and Ki data for 17 compounds are collected here from patent US10829481B2, “Benzimidazole derivatives as modulators of ROR-gamma” (Vitae Pharmaceuticals, LLC, priority 2016, dated 2020).

Assay [1] has as its target full-length RORγt in Jurkat cells (Homo sapiens (Human), UniProt P51449). Briefly: RORγt 5×RORE Assay in Jurkat Cells (Assay 2). The class given is cell-based. The note with it: 5×RORE Nanoluc luciferase reporter. Here is the method:
RORγt 5×RORE Assay in Jurkat Cells (Assay 2)
Compounds described herein were tested for RORγ inverse agonist activity in a cell-based, transcriptional activity assay. Secreted Nanoluc® luciferase was used as a reporter for transcriptional activity of the full-length RORγt in Jurkat cells (ATCC, Cat. #TIB-152). […] (Promega, Cat. #N1021) using KpnI and HindIII restriction sites. […] After 5-6 hrs of incubation at 37° C./5% CO2, the cells were collected, resuspended in phenol-red free RPMI media containing 10% (v/v) delipidated FBS (Hyclone, Cat. #SH30855.03) and dispensed into 96-well clear bottom tissue culture plates (CoStar, Cat. #3603), at 80,000 cells per well. Tested compounds were added to the cells in the same media (final concentration of DMSO was 0.1% (v/v)), and the plates were incubated at 37° C./5% CO2 for 16-18 hrs. Luciferase activity in the conditioned supernatants was determined with NanoGlo® assay reagents (Promega, Cat. #N1130).

The target of assay [2] is recombinant RORγ Ligand Binding Domain (LBD) protein (Homo sapiens (Human), UniProt P51449). Briefly: Radio-Ligand RORγ Binding Assay (Assay 1). Conditions: competition with 25-hydroxy [26,27-3H]-cholesterol, SPA. The protocol:
Radio-Ligand RORγ Binding Assay (Assay 1)
Compounds described herein were tested for ability to bind to RORγ in a cell-free competition assay with commercially available radio-ligand (RL), 25-hydroxy [26,27-^3H]-cholesterol (PerkinElmer, Cat. #NET674250UC), for a ligand binding site on a recombinant RORγ Ligand Binding Domain (LBD) protein expressed as a 6×His-Glutathione-S-Transferase (GST) fusion. The assay was performed in 96-well SPA plates (PerkinElmer, Cat. #1450-401) in 50 mM HEPES buffer, pH 7.4, containing 150 mM NaCl, 5 mM MgCl2, 10% (v/v) glycerol, 2 mM CHAPS, 0.5 mM β-octylglucopyranoside and 5 mM DTT. Tested compounds were dissolved in DMSO, and semi-log (3.162×) serial dilutions of the compounds were prepared in the same solvent. Two μL of the DMSO solutions were mixed with 28 μL of 8.6 nM 25-hydroxy [26,27-^3H]-cholesterol and 50 μL of 24 nM RORγ LBD. The plate was shaken at 700 rpm for 20 min and incubated for 10 min at rt, after which 40 μL of poly-Lys YSi SPA beads (PerkinElmer, Cat. #RPNQ0010) were added to achieve […] of the beads per well. The plate was incubated on an orbital shaker for 20 min and then for 10 min without agitation at rt. SPA signal for tritium beta radiation was registered on PerkinElmer Microbeta plate reader. […] The percent inhibition vs. concentration data were fit into a four-parameter model, and IC50 values were calculated from the fit as the concentrations corresponding to the inflection points on the dose-response curves. Inhibitory constants (Ki) were calculated using the following equation, where [RL] is the concentration in the assay and KD is a dissociation constant of 25-hydroxy [26,27-^3H]-cholesterol: […]

Chain of recombinant RORγ Ligand Binding Domain (LBD) protein (P51449 269-508): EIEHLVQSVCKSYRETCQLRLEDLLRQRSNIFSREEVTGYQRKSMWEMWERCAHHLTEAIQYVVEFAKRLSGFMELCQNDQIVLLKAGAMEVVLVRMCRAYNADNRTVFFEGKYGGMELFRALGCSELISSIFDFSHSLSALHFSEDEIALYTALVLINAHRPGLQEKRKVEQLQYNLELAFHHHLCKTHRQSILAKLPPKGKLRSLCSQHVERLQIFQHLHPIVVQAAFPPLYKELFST
Chain of full-length RORγt in Jurkat cells (P51449 other isoform, or with tags, fused parts or gaps): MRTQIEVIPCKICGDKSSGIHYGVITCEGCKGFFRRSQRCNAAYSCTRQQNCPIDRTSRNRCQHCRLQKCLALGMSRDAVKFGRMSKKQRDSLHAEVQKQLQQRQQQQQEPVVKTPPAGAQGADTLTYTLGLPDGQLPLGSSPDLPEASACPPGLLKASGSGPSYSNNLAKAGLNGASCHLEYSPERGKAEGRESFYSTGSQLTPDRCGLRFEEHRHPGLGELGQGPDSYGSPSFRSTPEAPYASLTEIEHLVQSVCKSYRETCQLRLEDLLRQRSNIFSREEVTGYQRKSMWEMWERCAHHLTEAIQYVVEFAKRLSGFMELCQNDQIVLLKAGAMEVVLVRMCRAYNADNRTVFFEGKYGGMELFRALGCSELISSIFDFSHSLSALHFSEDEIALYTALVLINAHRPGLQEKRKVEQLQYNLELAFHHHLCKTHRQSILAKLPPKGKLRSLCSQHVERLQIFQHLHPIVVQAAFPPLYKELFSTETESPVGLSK

On to `CS(=O)(=O)N1CCC(CC(=O)Nc2ccc3c(c2)nc(C(F)(F)F)n3Cc2cccc3c2OC(F)(F)O3)CC1` [I-10, N-(1-((2,2-difluorobenzo[d][1,3]dioxol-4-yl)methyl)-2-(trifluoromethyl)-1H-benzo[d]imidazol-5-yl)-2-(1-(methylsulfonyl)piperidin-4-yl)acetamide], for which the IC50 (commonly the concentration that inhibits the measured activity by half) in assay [1] was greater than 1000 nM. Further, the Ki (usually the dissociation constant of the complex between target and ligand, obtained from inhibition or displacement) in assay [2] was less than 100 nM.

In assay [1], `CCS(=O)(=O)c1ccc([C@H](CO)NC(=O)c2ccc3c(c2)nc(C(F)(F)F)n3Cc2cccc3c2OC(F)(F)O3)cc1` [I-11.1, (R)-1-((2,2-difluorobenzo[d][1,3]dioxol-4-yl)methyl)-N-(1-(4-(ethylsulfonyl)phenyl)-2-hydroxyethyl)-2-(trifluoromethyl)-1H-benzo[d]imidazole-5-carboxamide] gave an IC50 of less than 100 nM. Also, the inhibitory constant (Ki) in assay [2] is less than 100 nM.

With `CCS(=O)(=O)c1ccc([C@@H](CO)NC(=O)c2ccc3c(c2)nc(C(F)(F)F)n3Cc2cccc3c2OC(F)(F)O3)cc1` [I-11.2, (S)-1-((2,2-difluorobenzo[d][1,3]dioxol-4-yl)methyl)-N-(1-(4-(ethylsulfonyl)phenyl)-2-hydroxyethyl)-2-(trifluoromethyl)-1H-benzo[d]imidazole-5-carboxamide], in assay [1], the IC50 is less than 100 nM. Moreover, the inhibitory constant (Ki) in assay [2] was less than 100 nM.

In the case of `CCc1nc2cc(C(=O)N[C@@H](CO)c3ccc(S(=O)(=O)CC)cc3)ccc2n1Cc1cccc2c1OC(F)(F)O2` [I-16, (R)-1-((2,2-difluorobenzo[d][1,3]dioxol-4-yl)methyl)-2-ethyl-N-(1-(4-(ethylsulfonyl)phenyl)-2-hydroxyethyl)-1H-benzo[d]imidazole-5-carboxamide], the IC50 in assay [1] was less than 100 nM. In addition, the Ki in assay [2] is less than 100 nM.

Turning to `CCS(=O)(=O)c1ccc([C@H](CO)NC(=O)c2ccc3c(c2)nc(C(F)F)n3Cc2cccc3c2OC(F)(F)O3)cc1` [I-17, (R)-1-((2,2-difluorobenzo[d][1,3]dioxol-4-yl)methyl)-2-(difluoromethyl)-N-(1-(4-(ethylsulfonyl)phenyl)-2-hydroxyethyl)-1H-benzo[d]imidazole-5-carboxamide], the IC50 in assay [1] is less than 100 nM. The Ki in assay [2] is less than 100 nM.

In assay [1], `CCS(=O)(=O)c1ccc([C@H](CO)NC(=O)c2ccc3c(c2)nc(C2(F)CC2)n3Cc2cccc3c2OC(F)(F)O3)cc1` [I-18, (R)-1-((2,2-difluorobenzo[d][1,3]dioxol-4-yl)methyl)-N-(1-(4-(ethylsulfonyl)phenyl)-2-hydroxyethyl)-2-(1-fluorocyclopropyl)-1H-benzo[d]imidazole-5-carboxamide] had an IC50 of less than 100 nM. Besides, the Ki in assay [2] is less than 100 nM.

Consider `CS(=O)(=O)c1ccc([C@H](CO)NC(=O)c2ccc3c(c2)nc(C(F)(F)F)n3Cc2cccc3c2OC(F)(F)O3)cc1` [I-20.1, (R)-1-((2,2-difluorobenzo[d][1,3]dioxol-4-yl)methyl)-N-(2-hydroxy-1-(4-(methylsulfonyl)phenyl)ethyl)-2-(trifluoromethyl)-1H-benzo[d]imidazole-5-carboxamide], for which the IC50 in assay [1] was less than 100 nM. The Ki in assay [2] is less than 100 nM.

`CS(=O)(=O)c1ccc([C@@H](CO)NC(=O)c2ccc3c(c2)nc(C(F)(F)F)n3Cc2cccc3c2OC(F)(F)O3)cc1` [I-20.2, (S)-1-((2,2-difluorobenzo[d][1,3]dioxol-4-yl)methyl)-N-(2-hydroxy-1-(4-(methylsulfonyl)phenyl)ethyl)-2-(trifluoromethyl)-1H-benzo[d]imidazole-5-carboxamide] displayed a half-inhibitory concentration (IC50) in assay [1] of less than 100 nM. The Ki in assay [2] is less than 100 nM.

Compound `CS(=O)(=O)c1ccc([C@H](CO)NC(=O)c2ccc3c(c2)nc(C2CC2)n3Cc2cccc3c2OC(F)(F)O3)cc1` [I-21, (R)-2-cyclopropyl-1-((2,2-difluorobenzo[d][1,3]dioxol-4-yl)methyl)-N-(2-hydroxy-1-(4-(methylsulfonyl)phenyl)ethyl)-1H-benzo[d]imidazole-5-carboxamide] showed an IC50 in assay [1] of less than 100 nM. The Ki in assay [2] was less than 100 nM.

As to `CS(=O)(=O)c1ccc([C@H](CO)NC(=O)c2ccc3c(c2)nc(C2CCC2)n3Cc2cccc3c2OC(F)(F)O3)cc1` [I-22, (R)-2-cyclobutyl-1-((2,2-difluorobenzo[d][1,3]dioxol-4-yl)methyl)-N-(2-hydroxy-1-(4-(methylsulfonyl)phenyl)ethyl)-1H-benzo[d]imidazole-5-carboxamide], in assay [1], the IC50 was less than 100 nM. In addition, in assay [2], the Ki is less than 100 nM.

`CS(=O)(=O)c1ccc([C@H](CO)NC(=O)c2ccc3c(c2)nc(C(F)F)n3Cc2cccc3c2OC(F)(F)O3)cc1` [I-23.1, (R)-1-((2,2-difluorobenzo[d][1,3]dioxol-4-yl)methyl)-2-(difluoromethyl)-N-(2-hydroxy-1-(4-(methylsulfonyl)phenyl)ethyl)-1H-benzo[d]imidazole-5-carboxamide] returned an IC50 in assay [1] of less than 100 nM. Moreover, the Ki in assay [2] was less than 100 nM.

In turn, `CS(=O)(=O)c1ccc([C@@H](CO)NC(=O)c2ccc3c(c2)nc(C(F)F)n3Cc2cccc3c2OC(F)(F)O3)cc1` [I-23.2, (S)-1-((2,2-difluorobenzo[d][1,3]dioxol-4-yl)methyl)-2-(difluoromethyl)-N-(2-hydroxy-1-(4-(methylsulfonyl)phenyl)ethyl)-1H-benzo[d]imidazole-5-carboxamide] gave an IC50 in assay [1] of 100 to 1000 nM. Besides, in assay [2], the inhibitory constant (Ki) was less than 100 nM.

The compound `CS(=O)(=O)c1ccc([C@H](CO)NC(=O)c2ccc3c(c2)nc(C2(F)CC2)n3Cc2cccc3c2OC(F)(F)O3)cc1` [I-24, (R)-1-((2,2-difluorobenzo[d][1,3]dioxol-4-yl)methyl)-2-(1-fluorocyclopropyl)-N-(2-hydroxy-1-(4-(methylsulfonyl)phenyl)ethyl)-1H-benzo[d]imidazole-5-carboxamide] displayed an IC50 in assay [1] of less than 100 nM. The Ki in assay [2] is less than 100 nM.

In turn, `CCS(=O)(=O)c1ccc(CNC(=O)c2ccc3c(c2)nc(C(F)(F)F)n3Cc2cccc3c2OC(F)(F)O3)cc1` [I-25, 1-((2,2-difluorobenzo[d][1,3]dioxol-4-yl)methyl)-N-(4-(ethylsulfonyl)benzyl)-2-(trifluoromethyl)-1H-benzo[d]imidazole-5-carboxamide] gave an IC50 in assay [1] of less than 100 nM. Further, in assay [2], the Ki is less than 100 nM.

For `CCS(=O)(=O)c1ccc(CNC(=O)c2ccc3c(c2)nc(C2CC2)n3Cc2cccc3c2OC(F)(F)O3)cc1` [I-26, 2-cyclopropyl-1-((2,2-difluorobenzo[d][1,3]dioxol-4-yl)methyl)-N-(4-(ethylsulfonyl)benzyl)-1H-benzo[d]imidazole-5-carboxamide], in assay [1], the IC50 was less than 100 nM. Also, in assay [2], the Ki was less than 100 nM.

In assay [1], `CCS(=O)(=O)c1ccc(CNC(=O)c2ccc3c(c2)nc(C2(F)CC2)n3Cc2cccc3c2OC(F)(F)O3)cc1` [I-27, 1-((2,2-difluorobenzo[d][1,3]dioxol-4-yl)methyl)-N-(4-(ethylsulfonyl)benzyl)-2-(1-fluorocyclopropyl)-1H-benzo[d]imidazole-5-carboxamide] gave an IC50 of less than 100 nM. Further, the Ki in assay [2] was less than 100 nM.

Regarding `CCS(=O)(=O)c1ccc(CNC(=O)c2ccc3c(c2)nc(COC)n3Cc2cccc3c2OC(F)(F)O3)cc1` [I-28, 1-((2,2-difluorobenzo[d][1,3]dioxol-4-yl)methyl)-N-(4-(ethylsulfonyl)benzyl)-2-(methoxymethyl)-1H-benzo[d]imidazole-5-carboxamide], the IC50 in assay [1] is less than 100 nM. Besides, in assay [2], the Ki is less than 100 nM.
